# In PMC11638278, “Ascorbate: a forgotten component in the cytotoxicity of Cu(II) ATCUN peptide complexes” (Journal of Biological Inorganic Chemistry, 2024):
# System: AGS cells (gastric adenocarcinoma)
# Experiment: MTT cell viability assay on AGS cells
# Assay type: cell-based
# Details: AscH− 100 µM alone (negative control), 48 h
# Experimental: The complexes 1–3, Cu-GGH, CuCl2 and the peptides a-c, GGH alone were tested on three different cancer cell lines towards their cytotoxic activity: HeLa cells (cervical adenocarcinoma), AGS and NCI-N87 cells (both gastric adenocarcinoma). The cells were grown and treated with compounds in RPMI Medium 1640 (1×) supplemented with 10% fetal calf serum in a humidified incubator with 5% CO2 at 37 °C. MTT cell viability assays were carried out at two concentrations (100 and 250 µM) at least in duplicate (in AGS cells additionally in two independent experiments). The Annexin V-FITC apoptosis assay was carried out at a compound concentration of 500 µM in duplicate in two independent experiments.
# For the MTT cell viability assay (Sigma Aldrich), cells were seeded at 10 000 (HeLa and AGS) and 20 000 (NCI-N87) cells/well in 96-well plates and left to settle for 24 h. […] Quantification of the formazan was ensured by a Spectramax M5 (Molecular Devices) microplate reader at an absorbance of 470 nm to determine the percentage of cell-growth inhibition of each sample (with compound) relative to a negative control (no compound). […]
smiles,measurement,value
"O=C1O[C@H]([C@@H](O)CO)C(O)=C1O [AscH^−, sodium ascorbate]",cytotoxicity of the additive alone,does not show significant cytotoxicity
